Reference: patent US11999718B2, “Pyrazole derivatives” (Aptabio Therapeutics Inc., priority 2021, dated 2024)

Test system: HL-60 cells differentiated into neutrophil cells
Assay: ROS production induced by PMA in HL-60 cells differentiated into neutrophil cells
Assay type: cell-based
Conditions: Homo sapiens, 0.5 h; differentiated HL-60 cells, compounds 0.5 uM (0.5 mM in the source) for 30 minutes, 200 nM PMA, L-012 luminescence
Excerpt: In order to confirm the effect of the compounds of Synthetic examples on ROS production from fibroblasts and specific substrate cells, ROS production was induced by stimulation of PMA (phorbol 12-myristate 13-acetate), TGF-β1, palmitate or high concentration-glucose, or the like, in HL-60 cells differentiated into neutrophil cells by DMSO treatment, NHLF (normal human lung fibroblast, Lonza), LX-2 (human hepatic stellate cells, Sigma), ARPE19 (human retinal pigment epithelial cell, ATCC), and KEL-FIB (Keloid fibroblast, ATCC) cells, and under this condition, the inhibitory effect of ROS production of the compounds of Synthetic Examples was observed.
HL-60 cells (human leukemia cells, ATCC) were suspended in a medium containing 1.25% DMSO (RPMI+10% FBS) and cultured under the condition of 5% CO2, 37° C. for 6 days, thereby inducing differentiation into neutrophil cells. […] Then, to each well comprising the cells and drug, 200 nM PMA was treated to induce ROS production, and such ROS production was measured by observing the luminescence level of each well using 100 μM L-012.

Compound | inhibition at 0.5 µM
Oc1c2c(nn1-c1ccccn1)CCC(NCCc1ccccc1)C2 (stereo not drawn) [Compound 93, 5-(Penethylamino)-2-(pyridin-2-yl)-4,5,6,7-tetrahydro-2H-indazol-3-ol] | 30 to 50%
CC(=O)c1ccc(N2CCN(C3CCc4nn(-c5ccccn5)c(O)c4C3)CC2)cc1 (stereo not drawn) [Compound 130, 1-(4-(4-(3-Hydroxy-2-(pyridin-2-yl)-4,5,6,7-tetrahydro-2H-indazol-5-yl)piperazin-1-yl)phenyl)ethan-1-one] | > 70%
CN1CCN(C2CCc3nn(-c4ccc(F)cc4)c(O)c3C2)CC1 (stereo not drawn) [Compound 102, 2-(4-Fluorophenyl)-5-(4-methylpiperazin-1-yl)-4,5,6,7-tetrahydro-2H-indazol-3-ol] | > 70%
Oc1c2c(nn1-c1ccccn1)CCC(N1CCN(CCc3ccccc3)CC1)C2 (stereo not drawn) [Compound 104, 5-(4-Penethylpiperazin-1-yl)-2-(pyridin-2-yl)-4,5,6,7-tetrahydro-2H-indazol-3-ol] | 50 to 70%
Cc1ccccc1CN(C)C1CCc2nn(-c3ccccn3)c(O)c2C1 (stereo not drawn) [Compound 29, 5-[Methyl-(2-methylbenzyl)amino]-2-(pyridin-2-yl)-4,5,6,7-tetrahydro-2H-indazol-3-ol] | 30 to 50%
Oc1c2c(nn1-c1ccccn1)CCC(N1CCN(Cc3ccc4ncccc4c3)CC1)C2 (stereo not drawn) [Compound 90, 2-(Pyridin-2-yl)-5-(4-(quinolin-6-ylmethyl)piperazin-1-yl)-4,5,6,7-tetrahydro-2H-indazol-3-ol] | > 70%
COc1ccccc1CN(C)C1CCc2nn(-c3ccccn3)c(O)c2C1 (stereo not drawn) [Compound 26, 5-[(2-Methoxybenzyl)-methylamino]-2-(pyridin-2-yl)-4,5,6,7-tetrahydro-2H-indazol-3-ol] | < 30%
CN1CCN(c2cccc3nc(CN(C)C4CCc5nn(-c6ccccn6)c(O)c5C4)cn23)CC1 (stereo not drawn) [Compound 37, 5-{Methyl[5-(4-methylpiperazin-1-yl)imidazo[1,2-a]pyridin-2-yl]methylamino}-2-(pyridin-2-yl)-4,5,6,7-tetrahydro-2H-indazol-3-ol] | 30 to 50%
CN1CCN(C2CCc3nn(-c4nccc5sccc45)c(O)c3C2)CC1 (stereo not drawn) [Compound 85, 5-(4-Methylpiperazin-1-yl)-2-(thieno[3,2-c]pyridin-4-yl)-4,5,6,7-tetrahydro-2H-indazol-3-ol] | 50 to 70%
COc1ccc(CN(C)C2CCc3nn(-c4ccccn4)c(O)c3C2)cc1 (stereo not drawn) [Compound 28, 5-[(4-Methoxybenzyl)methylamino]-2-(pyridin-2-yl)-4,5,6,7-tetrahydro-2H-indazol-3-ol] | 50 to 70%
CCCN(Cc1ccccc1)C1CCc2nn(-c3ccccn3)c(O)c2C1 (stereo not drawn) [Compound 21, 5-(Benzylpropylamino)-2-(pyridin-2-yl)-4,5,6,7-tetrahydro-2H-indazol-3-ol] | 30 to 50%
CCN(Cc1ccccc1)C1CCc2nn(-c3ccccn3)c(O)c2C1 (stereo not drawn) [Compound 20, 5-(Benzylethylamino)-2-(pyridin-2-yl)-4,5,6,7-tetrahydro-2H-indazol-3-ol] | 30 to 50%
COc1ccc(N2CCN(C3CCc4nn(-c5ccccn5)c(O)c4C3)CC2)cc1 (stereo not drawn) [Compound 129, 5-(4-(4-Methoxyphenyl)piperazin-1-yl)-2-(pyridin-2-yl)-4,5,6,7-tetrahydro-2H-indazol-3-ol] | > 70%
CN(Cc1cccc(C(F)(F)F)c1)C1CCc2nn(-c3ccccn3)c(O)c2C1 (stereo not drawn) [Compound 10, 5-[Methyl-(3-trifluoromethylbenzyl)-amino]-2-pyridin-2-yl-4,5,6,7-tetrahydro-2H-indazol-3-ol] | 30 to 50%
CN1CCN(c2cc(CN(C)C3CCc4nn(-c5ccccn5)c(O)c4C3)ncn2)CC1 (stereo not drawn) [Compound 34, 5-{methyl-[6-(4-methyl-piperazin-1-yl)-pyrimidin-4-ylmethyl]-amino}-2-pyridin-2-yl-4,5,6,7-tetrahydro-2H-indazol-3-ol] | 30 to 50%
